Measurements: publication PMC8765437, “GSK3640254 Is a Novel HIV-1 Maturation Inhibitor with an Optimized Virology Profile” (Antimicrobial Agents and Chemotherapy, 2022)
Read-outs that look alike come from different tables or passages of the source.

System: NLRepRlucP373S viruses containing Gag SDMs or gag/pr genes from clinical isolates
Test: Multiple-cycle replication assay, NLRepRluc reporter viruses in MT-2 cells, luciferase endpoint
Format: cell-based, HIV-1
Source text: Multiple-cycle assays using recombinant viruses or clinical isolates were used to assess MI antiviral activity as described previously ([10]). pNLRepRlucP373S (the P373S change is in the Gag gene and converts an outlier polymorphism in the NL4-3 gene to the prevalent amino acid in the population) plasmids containing SDMs in Gag or gag/pr regions from clinical isolates were transfected into HEK 293T cells, and the supernatant containing recombinant virus was harvested after 4 to 5 days. Virus was used to infect MT-2 cells in the presence of a 3-fold serially diluted compound at a final dimethyl sulfoxide (DMSO) concentration of 1%. The inocula of the reporter viruses were determined based on the luciferase activity detected on day 4 postinfection. The MOI (ratio of infectious virions to target cells) of reporter-free laboratory strains and clinical isolates was 0.005, as derived from a tissue culture infectious dose study. Clinical isolates or reporter-free viruses were examined in the reporter CEM-NKR-CCR5-Luc cells or PBMCs at MOIs ranging from 0.005 to 0.01. Each infection started with a drug-free preincubation of the cell-virus mixtures, performed at 37°C and 5% CO2 for either 1 h at 2 times the final cell density (reporter viruses) or 1 h (reporter-free laboratory strains) or 3 h (clinical isolates) using cell pellets in 0.5 mL of medium. After preincubation, cell-virus mixtures were added to compound-containing 96-well plates for a final cell density of either 10,000 (MT-2 cells for reporter viruses), 20,000 (MT-2 and PM1 cells for reporter-free laboratory strains), 200,000 (PBMCs for clinical isolates), or 500,000 (CEM-NKR-CCR5-Luc for reporter-free laboratory strains) cells per well. The CEM-NKR-CCR5-Luc cell assay was performed in the presence of Polybrene (10 μg/mL). Virus growth was determined on days 4 to 5 postinfection for reporter variants or days 5 to 11 for the other viruses. The reporter viruses were detected by a luciferase assay according to manufacturer protocols (Brite-Glo luciferase kit [Promega] for CEM-NKR-CCR5-Luc cells and Dual-Luciferase Reporter 1000 assay system [Promega] for the other cells), and luminescence was detected on a Wallac Trilux. The growth of clinical isolates in PBMCs was quantitated by reverse transcriptase activity in a 96-well scintillation proximity assay (SPA). Twenty microliters of culture supernatants was mixed with 40 μL of reaction cocktail (62.5 mM Tris-HCl [pH 7.8], 100 mM KCl, 0.0625% NP-40, 2.5 mM dithiothreitol [DTT], 6.25 mM MgCl2, 1 mM EGTA, 6.25 μg/mL of poly rA, 2.5 μg/mL of streptavidin SPA beads prebound with biotinylated-dT12-18, and 1 μCi of [^3H]TTP). Mixtures were incubated at 37°C for ∼3 h and quenched with 100 μl of 0.25 M EDTA per well. Luminescence was detected on a Wallac Trilux programmed for tritium counting with SPA beads in opaque plates. The growth of the reporter-free laboratory M-tropic strains and clinical isolates was monitored by a p24 enzyme-linked immunosorbent assay (ELISA; PerkinElmer Life Sciences, Waltham, MA) performed on culture supernatants. […] A 1:1,000 dilution of cell supernatant in PBS was generally observed to fall in the dynamic range of the endpoint signal.
Maximal percent inhibition values were calculated as MPI = 100 – (mean signals at the 2 highest concentrations of compound/mean signal of 2 no-drug control wells) × 100.

[1] = Human immunodeficiency virus 1, MT2, V370A, 10% FBS
[2] = Human immunodeficiency virus 1, MT2, Wild type, 10% FBS

## C=C(C)[C@@H]1CC[C@]2(NCCN3CCS(=O)(=O)CC3)CC[C@]3(C)[C@H](CC[C@@H]4[C@@]5(C)CC=C(C6=CC[C@@](CF)(C(=O)O)CC6)C(C)(C)[C@@H]5CC[C@]43C)[C@@H]12 [GSK’254]
A366V-containing viruses
  MPI: −86 to 400%
Human immunodeficiency virus 1, MT2, 92BR018-genotyped NLRepRlucP373S virus
  EC50: 1 nM
Human immunodeficiency virus 1, MT2, 93BR008-genotyped NLRepRlucP373S virus
  EC50: 2 nM
Human immunodeficiency virus 1, MT2, R361K/V362I/L363M
  EC50: 3 nM
Human immunodeficiency virus 1, MT2, Table S1, SDM R361K/V362I/L363M
  EC50: 3 nM
Human immunodeficiency virus 1, MT2, Table S1, SDM S368R/V370A
  EC50: 1 nM
Human immunodeficiency virus 1, MT2, Table S1, SDM V362I/V370A
  EC50: 3 nM
Human immunodeficiency virus 1, MT2, Table S1, SDM V370A
  EC50: 2 nM
Human immunodeficiency virus 1, MT2, Table S1, SDM V370A/ΔT371
  EC50: 3 nM
Human immunodeficiency virus 1, MT2, Table S1, SDM ΔV370
  EC50: 3 nM
Human immunodeficiency virus 1, MT2, Table S1, subtype B SDM Wild-type (V, QVT)
  EC50: 3 nM
Human immunodeficiency virus 1, MT2, V362I/V370A
  EC50: 3 nM
[1]
  EC50: 1.5 nM
  EC90: 3 nM
[2]
  EC50: 1.4 nM
  EC90: 3.6 nM
Human immunodeficiency virus 1, MT2, read-out: EC50 (range), Subtype B gag/pr viruses, n=24
  EC50: 0.5 to 7 nM
Human immunodeficiency virus 1, MT2, read-out: EC50 (range), Subtype C gag/pr viruses, n=11
  EC50: 1 to 2 nM
Human immunodeficiency virus 1, MT2, read-out: EC50 (range), V362I only viruses, n=9
  EC50: 1 to 7 nM
Human immunodeficiency virus 1, MT2, read-out: EC50 (range), Wild-type subtype B, n=5
  EC50: 0.5 to 2 nM
Human immunodeficiency virus 1, MT2, read-out: Mean ± SD EC50, A366V-containing viruses (A366V, V362I/A366V, V362I/A366V/V370M, A366V/V370M)
  EC50: > 3000 nM
Human immunodeficiency virus 1, MT2, read-out: Mean ± SD EC50, SDM A326T/V362I/V370A
  EC50: 26 ± 70 nM
Human immunodeficiency virus 1, MT2, read-out: Mean ± SD EC50, SDM A364V
  EC50: 274 ± 505 nM
Human immunodeficiency virus 1, MT2, read-out: Mean ± SD EC50, SDM R361K/V362I/L363M
  EC50: 3 ± 1 nM
Human immunodeficiency virus 1, MT2, read-out: Mean ± SD EC50, SDM T332S/V362I/prR41G
  EC50: 7 ± 4 nM
Human immunodeficiency virus 1, MT2, read-out: Mean ± SD EC50, SDM V362I/V370A
  EC50: 3 ± 1 nM
Human immunodeficiency virus 1, MT2, read-out: Mean ± SD EC50, SDM V370A
  EC50: 2 ± 1 nM
Human immunodeficiency virus 1, MT2, read-out: Mean ± SD EC50, SDM Wild type
  EC50: 3 ± 2 nM
Human immunodeficiency virus 1, MT2, read-out: Mean ± SD EC50, SDM ΔV370
  EC50: 3 ± 1 nM
Human immunodeficiency virus 1, MT2, read-out: Mean ± SD EC50, Subtype B gag/pr viruses, n=24
  EC50: 1.9 ± 1.5 nM
Human immunodeficiency virus 1, MT2, read-out: Mean ± SD EC50, Subtype C gag/pr viruses, n=11
  EC50: 1.2 ± 0.4 nM
Human immunodeficiency virus 1, MT2, read-out: Mean ± SD EC50, V362I only viruses, n=9
  EC50: 2.7 ± 2 nM
Human immunodeficiency virus 1, MT2, read-out: Mean ± SD EC50, V362I/ΔV370 virus, n=1
  EC50: 3 nM
Human immunodeficiency virus 1, MT2, read-out: Mean ± SD EC50, Wild-type subtype B (V362, Q369, V370, T371), n=5
  EC50: 1.1 ± 0.5 nM
Human immunodeficiency virus 1, MT2, read-out: Median EC50, Subtype B gag/pr viruses, n=24
  EC50: 1 nM
Human immunodeficiency virus 1, MT2, read-out: Median EC50, Subtype C gag/pr viruses, n=11
  EC50: 1 nM
Human immunodeficiency virus 1, MT2, read-out: Median EC50, V362I only viruses, n=9
  EC50: 2 nM
Human immunodeficiency virus 1, MT2, read-out: Median EC50, Wild-type subtype B, n=5
  EC50: 1 nM
Human immunodeficiency virus 1, MT2, read-out: PBA EC90, Table S1, SDM A326T/V362I/V370A
  EC90: 117 nM
Human immunodeficiency virus 1, MT2, read-out: PBA EC90, Table S1, SDM R361K/V362I/L363M
  EC90: 50 nM
Human immunodeficiency virus 1, MT2, read-out: PBA EC90, Table S1, SDM S368R/V370A
  EC90: 9 nM
Human immunodeficiency virus 1, MT2, read-out: PBA EC90, Table S1, SDM T332S/V362I/PrR41G
  EC90: 77 nM
Human immunodeficiency virus 1, MT2, read-out: PBA EC90, Table S1, SDM V362I/V370A
  EC90: 18 nM
Human immunodeficiency virus 1, MT2, read-out: PBA EC90, Table S1, SDM V370A
  EC90: 21 nM
Human immunodeficiency virus 1, MT2, read-out: PBA EC90, Table S1, SDM V370A/ΔT371
  EC90: 40 nM
Human immunodeficiency virus 1, MT2, read-out: PBA EC90, Table S1, SDM ΔV370
  EC90: 57 nM
Human immunodeficiency virus 1, MT2, read-out: PBA EC90, Table S1, subtype B SDM Wild-type (V, QVT)
  EC90: 24 nM
Human immunodeficiency virus 1, MT2, read-out: PBA EC90, subtype B gag/pr 4NRR (Wild-type)
  EC90: 25 nM
Human immunodeficiency virus 1, MT2, read-out: PBA EC90, subtype B gag/pr 28-MDR (Wild-type)
  EC90: 37 nM
Human immunodeficiency virus 1, MT2, read-out: PBA EC90, subtype B gag/pr 92BR014 (V370M)
  EC90: 11 nM
Human immunodeficiency virus 1, MT2, read-out: PBA EC90, subtype B gag/pr 92BR018 (V, QAΔ)
  EC90: 26 nM
Human immunodeficiency virus 1, MT2, read-out: PBA EC90, subtype B gag/pr 92TH014 (V362I)
  EC90: 12 nM
Human immunodeficiency virus 1, MT2, read-out: PBA EC90, subtype B gag/pr 92TH026 (V362I)
  EC90: 32 nM
Human immunodeficiency virus 1, MT2, read-out: PBA EC90, subtype B gag/pr 92US072 (V362I)
  EC90: 21 nM
Human immunodeficiency virus 1, MT2, read-out: PBA EC90, subtype B gag/pr 92US729 (Wild-type)
  EC90: 13 nM
Human immunodeficiency virus 1, MT2, read-out: PBA EC90, subtype B gag/pr 93BR008 (V362I)
  EC90: 30 nM
Human immunodeficiency virus 1, MT2, read-out: PBA EC90, subtype B gag/pr 93BR017 (V, QAΔ)
  EC90: 20 nM
Human immunodeficiency virus 1, MT2, read-out: PBA EC90, subtype B gag/pr 93BR022 (V, QAΔ)
  EC90: 28 nM
Human immunodeficiency virus 1, MT2, read-out: PBA EC90, subtype B gag/pr 93BR024 (V362I)
  EC90: 180 nM
Human immunodeficiency virus 1, MT2, read-out: PBA EC90, subtype B gag/pr 93TH0647 (V362I)
  EC90: 23 nM
Human immunodeficiency virus 1, MT2, read-out: PBA EC90, subtype B gag/pr 93US141 (V362I)
  EC90: 37 nM
